# Data from ChEMBL document CHEMBL1131818, “Novel quinolinequinone antitumor agents: structure-metabolism studies with NAD(P)H:quinone oxidoreductase (NQO1)” (Bioorg Med Chem Lett, 1999).
# Assay: Metabolism by recombinant human NAD(P)H:quinone oxidoreductase (NQO1) was evaluated
# Type: ADME
row,SMILES,NADH oxidation
1,COC1=CC(=O)c2nc(-c3cccs3)ccc2C1=O,32.1 µM/min/mg
2,COC1=CC(=O)c2nc(-c3ccc(C)cn3)ccc2C1=O,45.7 µM/min/mg
3,COC1=CC(=O)c2ncccc2C1=O,58.7 µM/min/mg
4,COC1=CC(=O)c2nc(-c3cc4ccccc4o3)ccc2C1=O,33.3 µM/min/mg
5,COC1=CC(=O)c2nc(-c3ccccn3)ccc2C1=O,50.5 µM/min/mg
6,COC1=CC(=O)c2c(cc(C)n2C)C1=O,5.31 µM/min/mg
7,COC1=CC(=O)c2nc(-c3ccc(C)cc3)ccc2C1=O,19.2 µM/min/mg
8,O=C1C(N2CCCC2)=CC(=O)c2ncccc21,26.2 µM/min/mg
9,COC1=CC(=O)c2nc(Cl)ccc2C1=O,100 µM/min/mg
10,COC1=C(N)C(=O)c2nc(-c3nc(C(=O)O)c(C)c(-c4ccc(OC)c(OC)c4O)c3N)ccc2C1=O [STREPTONIGRIN],47.4 µM/min/mg

# Results, then the compound that gave them:
row,NADH oxidation,SMILES
1,28.8 µM/min/mg,COC1=CC(=O)c2nc(-c3ccccc3)ccc2C1=O
2,14 µM/min/mg,COC1=CC(=O)c2nc(-c3ccc4ccccc4c3)ccc2C1=O
3,25.1 µM/min/mg,COC1=CC(=O)c2nc(-c3cccc4ccccc34)ccc2C1=O
4,4.75 µM/min/mg,COC1=CC(=O)c2nc(-c3ccc(-c4ccccc4)cc3)ccc2C1=O
